Measured values published in ChEMBL document CHEMBL3227976, “Synthesis of steroidal nitrosoureas with antitumor activity” (1979).

Assays:
Assay type in all cases: functional
Details in all cases: Rattus norvegicus, 13762, sc; route subcutaneous; read-out: TGI
[1] = tested on: 13762; test: Antitumor activity against rat 13762 cells allografted in Fischer/344 rat assessed as tumor growth inhibition at 10 mg/kg/day, sc for 10 days followed by double the dose every 2 days from day 11 to day 19 relative to vehicle-treated control
[2] = tested on: 13762; test: Antitumor activity against rat 13762 cells allografted in Fischer/344 rat assessed as tumor growth inhibition at 40 mg/kg/day, sc for 10 days followed by double the dose every 2 days from day 11 to day 19 relative to vehicle-treated control
[3] = tested on: 13762; test: Antitumor activity against rat 13762 cells allografted in Fischer/344 rat assessed as tumor growth inhibition at 2 mg/kg/day, sc for 10 days followed by double the dose every 2 days from day 11 to day 19 relative to vehicle-treated control

SMILES | inhibition in vivo at 10 mg/kg/day [1] | inhibition in vivo at 40 mg/kg/day [2] | inhibition in vivo at 2 mg/kg/day [3]
CN(N=O)C(=O)NC[C@]1(O)CC[C@H]2[C@@H]3CCc4cc(O)ccc4[C@H]3CC[C@@]21C | 10% | 23% | 0%
CN(N=O)C(=O)N[C@H]1CC[C@H]2[C@@H]3CCc4cc(O)ccc4[C@H]3CC[C@]12C | 15% | 15% | 4%
O=NN(CCCl)C(=O)NC1CCCCC1 [LOMUSTINE] | 80% | – | –
C[C@]12CC[C@@H]3c4ccc(O)cc4CC[C@H]3[C@@H]1CC[C@@H]2NC(=O)N(CCCl)N=O | 50% | 100% | 0%
C[C@]12CC[C@@H]3c4ccc(O)cc4CC[C@H]3[C@@H]1CC[C@@]2(O)CNC(=O)N(CCCl)N=O | 35% | 85% | 0%
